“Also recorded” adds a separate entry of the source.
What was measured:
c-MPL = test: Cell surface c-MPL levels in MkPs by flow cytometry; format: cell-based, mouse
Description: Detection of c-MPL from in vivo and in vitro experiments was performed as follows. After harvesting BM progenitor cells, RBCs were lysed and the cells were then resuspended in FACS buffer. Cells were then stained with a cocktail of lineage markers to allow negative selection of BM progenitor cells (Sca1, CD127, CD45R, CD19, CD11b, CD3e, TER-119, CD2, CD8, CD4, and Ly-6C/G; all FITC; eBioscience) and progenitor cell markers, ckit, CD16/CD32 (FcγRII/III), CD34, CD41 and c-MPL or isotype control and allowed to stain on ice for 30 mins. Cells were then washed and stained with a fluorescently conjugated secondary anti-rabbit antibody to detect the anti-c-MPL for a further 30 mins on ice. After this the cells were washed, resuspended in FACS buffer and run on the LSRII. MEPs were identified as lin^− ckit^+CD16/CD32^loCD34^loCD41^−, while MkPs were identified as lin^−ckit^+CD16/CD32^loCD34^loCD41^+.

c-CBL = test: c-Cbl tyrosine phosphorylation in MkPs in response to TPO, flow cytometry; format: cell-based, mouse
Description: BM progenitor cells were stimulated with TPO at the indicated concentration for the specified period of time at 37° C. and then immediately diluted with ice-cold buffer and placed on ice to prevent further changes in phosphorylation. Cells were then centrifuged and the pellet resuspended in BD fix buffer (BD Biosciences) for 10 mins on ice. The cells were washed with BD flow cytometry staining buffer, centrifuged and then resuspended in BD cytofix/perm buffer III for 20 mins. After this the cells were washed and resuspended in BD staining buffer and incubated with lineage (Sca1, CD127, CD45R, CD19, CD11b, CD3e, TER-119, CD2, CD8, CD4, and Ly-6G; all FITC; eBioscience) and progenitor cell markers, ckit, CD16/CD32 (FcγRII/III), CD34, CD41 and anti-phospho-c-Cbl ([…]/[…]; BD biosciences) or an isotype control for 30 mins on ice. The cells were then washed, resuspended in FACS buffer and run on an LSRII. Phosphorylated c-Cbl was normalized against isotype control staining.

MkPs = test: MkP proliferation by EdU incorporation; format: cell-based, mouse; conditions: in the presence of TPO
Description: FIG. 3. Shown are results all from WT, Abcg4^-/- or Lyn^-/- MkPs (n=4). (A) Quantification of tyrosine-phosphorylated c-CBL in response to TPO. (B) Tyrosine-phosphorylated c-CBL levels 5 min after TPO treatment and with or without pretreatment with CD (3 mM), CD-chol (3 mM CD) for 30 min or rHDL (20 μg apoA-I/ml) for 2 hours. (C) Tyrosine-phosphorylated c-CBL with or without 5 min TPO treatment or SU6656 pretreatment (10 μg/ml for 2 h). (D) Cell surface c-MPL with or without TPO or SU6656 treatment for 2 h. (E) Tyrosine-phosphorylated c-CBL (5 min in response to TPO). (F) cell surface c-MPL (2 h TPO treatment) with or without pretreatment with CD-chol (3 mM CD) for 30 min. (G) 16 h EdU incorporation in the presence of TPO and with or without CD (3 mM), CD-Chol (3 mM CD) pretreatment for 30 min or rHDL (20 μg/ml) for 16 […]-5 and p-ERK1/2 levels with or without TPO for 10 minutes. TPO was 30 ng/ml for all the assays shown. Error bars are S.E.M. *P<0.05 WT vs Abcg4^-/- TPO and ^P<0.05 for treatment effect. Blood leukocytes and BM HSPCs were stained and analyzed or sorted as described (Murphy, A. J. et al. 2011). Briefly, BM cells from the mouse femurs and tibias were stained with a cocktail of antibodies to lineage committed cells (CD45R, CD19, CD11b, CD3e, TER-119, CD2, CD8, CD4, Ly-6C/G: All FITC, eBioscience), antibodies to Sca1 (Pacific Blue) and ckit (APC Cy7) to identify HSPC populations and LSK (lin-, Sac1+ and ckit+) cells, and antibodies to CD16/CD32 (FcγRII/III), CD34 to separate CMP (lin-, Sca1-, ckit+, CD34int, […] (lin-, Sca1-, ckit+, CD34int, […] (lin-, Sca1-, ckit+, CD34lo, FcγRII/IIIlo). For DNA content analysis (G2M phase), BM cells were fixed, and stained with DAPI (Invitrogen) prior to flow cytometry analysis. To determine in vivo cell proliferation, EdU (Invitrogen) was injected into mice via the tail vein 24 hours prior to being sacrificed. Cells were immunostained as described above in preparation for flow cytometry. Cells were then fixed and permeabilized using 0.01% saponin (w/v; Fluka) and 1% FCS (v/v) in IC fixation buffer (eBiosciences) for 30 minutes. Cells were then washed and stained with Alexa Fluor-conjugated azides using the Click-iT system (Invitrogen). Proliferation was quantified as percentage of EdU^+ cells by flow cytometry.

[1] = tested on: c-MPL(W515L) positive megakaryocyte progenitor cells; format: cell-based, mouse; conditions: tolimidone 10 μM, 10 days, IL-3 and TPO 1 ng/mL
Description: FIG. 21. BM cells of the recipient transplanted with BM cells expressing c-MPL(W515) were cultured for 10 days in the presence of IL-3 ([…]) and TPO (1 ng/mL) with or without tolimidone (10 μM). Megakaryocyte (Mk) colonies expressing c-MPL (W515) were identified by cell morphology and GFP expression. Identity of MK was also confirmed by staining for acetylcholinesterase activity. Count of Mk colonies (a); Mk count per colony (b); total colony per plate (c); fluorescence microscopy of a single colony (d). *p<0.05 between vehicle and tolimidone treatment.
Long-term, repeated rHDL infusions are less desirable relative to orally bioavailable small molecule compounds in treatment of chronic diseases such as MPNs. […] To assess the possibility that tolimidone limits megakaryopoiesis and thrombocytosis induced by c-MPL(W515), megakaryocyte colony formation assays with BM cells derived from mice with retroviral co-expression of c-MPL(W515L) and GFP in BM cells were used. […] Under the conditions of low TPO (1 ng/ml), the majority of cell colonies were non-megakaryocyte colonies.

[2] = tested on: BM cells derived from Jak2+/VF/Vavcre mice; test: Megakaryocyte colony formation assay, BM cells from Jak2+/VF/Vavcre mice; format: cell-based, mouse; conditions: tolimidone 10 μM, 14 days
Description: FIG. 22. BM cells from Jak^2+/VF/Vav^cre mice were plated and cultured for 14 days in the presence of IL-3 ([…]) and TPO (1 ng/mL) with or without tolimidone (10 μM). Megakaryocyte (Mk) colony was identified by cell morphology. Colony number/plate (a); Mk count/colony (b); and representative Mk colonies (c). Arrows indicate the projected proplatelet like structures from mature megakaryocytes. *p<0.05 between vehicle and tolimidone (10 μM).
In order to assess this possibility, megakaryocyte colony formation assay with BM cells derived from Jak2+/VF/Vavcre mice were performed. […] Moreover, many of the mature megakaryocytes in the vehicle group started to form long-projected cell structures resembling proplatelets.

platelets = test: Platelet count in Abcg4−/− mice with tolimidone; format: in vivo, mouse
Lyn tyrosine kinase = Lyn tyrosine kinase (Homo sapiens, UniProt P07948); conditions: Saporito et al. 2012; cited from earlier work
Chain of Lyn tyrosine kinase (P07948 whole entry): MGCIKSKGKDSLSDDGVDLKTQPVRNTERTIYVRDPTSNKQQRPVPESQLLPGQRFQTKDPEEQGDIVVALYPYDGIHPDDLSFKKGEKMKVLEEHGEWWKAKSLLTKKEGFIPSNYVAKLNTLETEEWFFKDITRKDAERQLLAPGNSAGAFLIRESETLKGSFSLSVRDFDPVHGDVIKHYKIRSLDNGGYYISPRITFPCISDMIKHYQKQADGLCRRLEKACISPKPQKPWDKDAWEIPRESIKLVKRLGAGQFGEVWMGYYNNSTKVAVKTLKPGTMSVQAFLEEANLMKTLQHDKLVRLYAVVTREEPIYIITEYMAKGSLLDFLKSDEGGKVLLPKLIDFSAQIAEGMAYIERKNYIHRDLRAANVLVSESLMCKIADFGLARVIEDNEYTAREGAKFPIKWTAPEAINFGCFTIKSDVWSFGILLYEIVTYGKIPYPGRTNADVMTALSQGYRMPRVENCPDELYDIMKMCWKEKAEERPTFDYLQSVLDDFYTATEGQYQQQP

ulcer = conditions: rats, 10 mg/kg, oral; Lipinski et al. 1980; cited from earlier work

## Cc1cccc(Oc2cnc(=O)[nH]c2)c1 [Tolimidone]
c-MPL; Abcg4−/− MkPs, TPO 30 ng/ml
  cell surface c-MPL levels: reverses; also recorded: reduces
c-MPL; Abcg4−/− MkPs, tolimidone 10 μM and TPO for 2 h (FIG. 16)
  cell surface c-MPL levels: significantly reduced
c-MPL; Lyn−/− MkPs, expected
  effects in Lyn−/− MkPs (c-MPL, c-Cbl phosphorylation, proliferation): no effects
c-MPL; WT MkPs, TPO 30 ng/ml
  cell surface c-MPL levels: decreased
c-MPL; WT and Abcg4−/− MkPs, BM cells of hypercholesterolemic Ldlr−/− mice, Tolimidone 10 μM, 30 ng/ml TPO, 2 hours (FIG. 20)
  cell surface c-MPL levels: significantly reduced
c-CBL; Abcg4−/− MkPs
  c-CBL tyrosine phosphorylation: increases
c-CBL; WT MkPs
  c-CBL tyrosine phosphorylation: increased
MkPs; Abcg4−/− MkPs
  MkP proliferation: decreases
MkPs; WT MkPs
  MkP proliferation: decreased
[1]
  GFP-positive megakaryocytes in each colony: significantly reduced
  number of GFP-positive megakaryocyte colonies: significantly reduced
  total number of colonies: did not significantly affect
[2]
  proportion of megakaryocytes that generated proplatelets: reduced
[2]; IL-3 and TPO 1 ng/mL
  number of megakaryocyte colonies: decreased
  number of megakaryocytes in each colony: decreased
platelets
  platelet count: reduces
Lyn tyrosine kinase
  Lyn kinase activity: selectively increases; also recorded: potent and selective
ulcer
  anti-ulcer activity: oral-active anti-ulcer activity

— patent US9687486B2, “Methods of treating atherosclerosis or myeloproliferative neoplasms by administering a lyn kinase activator” (THE TRUSTEES OF COLUMBIA UNIVERSITY IN THE CITY OF NEW YORK, priority 2012, dated 2017)
